Read-outs that look alike come from different tables or passages of the source.

In test [1] the target is T1, PPARα (Homo sapiens, UniProt Q07869).
T1 sequence (Q07869 239-466 limits assumed): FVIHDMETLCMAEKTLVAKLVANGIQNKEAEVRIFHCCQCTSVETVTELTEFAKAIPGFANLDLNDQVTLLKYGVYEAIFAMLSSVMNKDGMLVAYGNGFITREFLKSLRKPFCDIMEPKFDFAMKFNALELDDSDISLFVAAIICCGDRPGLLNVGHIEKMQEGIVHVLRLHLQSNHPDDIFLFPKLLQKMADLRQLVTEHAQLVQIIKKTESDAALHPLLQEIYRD
Further details: expressed in transfected cells; host or cells: HG5LN (HeLa-derived, GAL4RE-luciferase); method as in Seimandi et al., 2005. The following applies: ref Seimandi et al., 2005, cited from earlier work.

Test [2] has as its target T2, PPARγ (Homo sapiens, UniProt P37231).
T2 sequence (P37231 238-503 limits assumed): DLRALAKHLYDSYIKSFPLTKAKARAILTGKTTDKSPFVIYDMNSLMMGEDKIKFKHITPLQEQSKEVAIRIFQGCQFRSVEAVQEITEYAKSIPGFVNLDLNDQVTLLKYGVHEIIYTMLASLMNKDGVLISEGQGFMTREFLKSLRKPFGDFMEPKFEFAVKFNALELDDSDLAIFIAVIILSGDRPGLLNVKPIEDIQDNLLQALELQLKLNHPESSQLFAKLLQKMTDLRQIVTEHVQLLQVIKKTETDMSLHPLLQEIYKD
On the set-up: expressed in transfected cells; host or cells: HG5LN (HeLa-derived, GAL4RE-luciferase); method as in Seimandi et al., 2005. The following applies: inhibition of agonism by 20 nM rosiglitazone (BRL49653), ref Seimandi et al., 2005, read-out: Functionality, Lit. IC50; cited from earlier work.

Test [3] deals with T2, PPARγ. Nature of the test: HG5LN reporter cell assay, PPARγ-mediated transcription. The class given is cell-based. On the set-up: expressed in transfected cells; host or cells: HG5LN (HeLa-derived, GAL4RE-luciferase). From the text:
(§1) Nuclear receptors, including PPARα and γ, are ligand-inducible transcription factors that form heterodimers with retinoid X receptors and bind to specific DNA sites located in the enhancer/promoter region of target genes, releasing co-repressors and/or recruiting co-activators ([Wang, 2010]). We therefore assessed the functional consequences of the ligands on PPARα and γ-mediated transcriptional activation in reporter cell lines. These cell lines were generated as previously reported by a two-step transfection procedure ([Seimandi et al., 2005]). First, a stable cell line, HG5LN, expressing the reporter gene (GAL4RE-luciferase) was developed from the HeLa cell line. These cells were then transfected with a plasmid expressing the C-terminal ligand-binding domain of PPARα or γ fused to GAL4 DNA-binding domain. The parental HG5LN cells were used as a control to test non-specific modulation of luciferase expression by the small molecules investigated (Figure S4A). The HG5LN PPAR reporter cells therefore allow comparison of the functional activity at, and selectivity of different ligands for, PPARα and γ. […] As expected ([Abu Aboud et al., 2015]), GW6471 potently antagonized PPARα (Figure 4E and Table 1).
(§2) A transfected […] cell line HG5LN was used ([Balaguer et al., 2001]). These cells were cultured in Dubecco's modified Eagle's medium (DMEM-F12 Thermo Fisher Scientific) with phenol red and supplemented with 5% foetal calf serum, incubated at 37°C in a 5% CO2/95% air-humidified atmosphere. Luciferase assays were performed in DMEM-F12 (Thermo Fisher Scientific) without phenol red and supplemented with 5% dextran-coated charcoal-stripped FCS (test culture medium), puromycin (Thermo Fisher Scientific) 0.5 μg/mL and geneticin (Thermo Fisher Scientific) 1 mg/mL. Cells were seeded at a density of 5 x 10^4 cells/well and incubated for 8 h at 37°C in a 96-well plate white opaque tissue culture plates (Becton-Dickinson). Tested compounds were added in serial dilutions and incubated for 16 h at 37°C. After incubation, the medium containing the effectors was carefully removed and replaced by culture medium containing 3 x 10^−4 mol/L luciferin (Sigma Chemicals). After 5 min incubation at room temperature, the 96-well plate was then read with a Microbeta Wallac luminometer and the luminescence was measured in the living cells for 2 s. All experiments were performed in quadruplicate.

In test [4] the target is T1, PPARα. On the set-up: method as in Leesnitzer et al., 2002. The following applies: displacement of [3H]GW2331, incubation time 1 h, ref Leesnitzer et al., 2002, read-out: Lit. Binding assay, IC50; cited from earlier work. Background: Loss of bound radioactivity is the signal in a displacement assay; it reports binding, not function.
Test [5] has as its target T2, PPARγ. Briefly: LanthaScreen TR-FRET binding assay, PPARγ. Conditions: 2 h incubation, mean of 3 replicates ± SEM. How it is done:
(§3) The LanthaScreen™ TR-FRET binding assay was performed following the manufacturer's guidelines (PV4894, Invitrogen) as follows, 20 mM stock solution of the ligand or control in DMSO were serially diluted using 100% DMSO to produce a range of concentrations from 100 μM to 1 pM. The test compound solutions were mixed with the reaction buffer in a 1 (ligand) in 10 (reaction buffer) dilution for a final 2X ligand concentration. This was mixed with the reaction components (glutathione S-transferase (GST)-PPPARγLBD (0.5 nM)/, terbium (Tb)-labelled anti-GST antibody (5 nM) and Fluormone pan-PPAR green (5 nM for PPARγ; 20 nM for PPARα) at room temperature in a ratio of 8 μLl 2X ligand solution: 4 μLl of 4XFluormone: and 4 μLl 4X GST-PPPARγLBD/terbium (Tb)-labelled anti-GST antibody to produce a final reaction mixture volume of 16 μL. The concentration of DMSO in the final reaction mixture was 5%. The reaction mixture was kept at room temperature for 2 h prior to recording the TR-FRET emission spectra using a CLARIOstar Plus microplate reader (BMG Labtech). […] Results are expressed as the ratio of fluorescence intensity at 520 nm (Fluormone emission) and 490 nm (Tb emission). […] For each compound three serial dilutions were prepared and measured separately. The IC50 and SEM values were determined using a sigmoidal dose-response equation with varying slope using GraphPad Prism.
Background: Time-resolved FRET reads energy transfer from a long-lived donor to a nearby acceptor.

Test [6] concerns the target T1, PPARα. Nature of the test: HG5LN reporter cell assay, PPARα-mediated transcription. Further details: expressed in transfected cells; host or cells: HG5LN (HeLa-derived, GAL4RE-luciferase). The class given is cell-based.
Source text: as §1, §2

Test [7] addresses T2, PPARγ. On the set-up: method as in Leesnitzer et al., 2002. The following applies: displacement of [3H]rosiglitazone, incubation time 1 h, ref Leesnitzer et al., 2002, read-out: Lit. Binding assay, IC50; cited from earlier work.
The target in test [8] is T1, PPARα. Briefly: LanthaScreen TR-FRET binding assay, PPARα. Conditions: 2 h incubation, mean of 3 replicates ± SEM. How it is done: as §3
Test [9] deals with SC model of melanoma or a metastatic model of lung cancer. On the set-up: method as in Zou et al., 2019. Conditions: ref Zou et al., 2019; cited from earlier work.
Test [10] concerns brain metastases from melanoma and breast cancer. Further details: method as in Zou et al., 2019. The following applies: murine models; ref Zou et al., 2019; cited from earlier work.
Test [11] deals with HAP1, HAP1 PPARA KO, and HAP1 PPARG KO cell lines. Briefly: MTT cell metabolic activity assay, HAP1 lines. The class given is cell-based, human. Conditions: arachidonic acid 5 and 10 μM, p <0.0001. The procedure:
(§4) Cells were harvested and seeded in 96-flat well plates (Corning) at a density of 5 x 10^4 cells/mL overnight. Media was removed and 100 μL media with GW6471 or GW9662 at indicated concentrations was added to each well. Cell viability and toxicity were measured at 48 h. Cells were incubated with 50 μL of a 2 mg/mL solution of (3-(4,5-dimethyl-thiazole-2-yl)-2,5-[…] tetrazolium (MTT, Sigma-Aldrich) in PBS for 4 h and then exposed to 100 μL dimethyl sulfoxide (DMSO; Sigma-Aldrich). Cell viability was measured by absorption at 570 nm in a microplate spectrophotometer (Spectromax 250 plate reader). Results are shown as relative cell viability.

A further test concerns AB1. Briefly: MTT cell metabolic activity assay, AB1. The class given is cell-based, mouse. The following applies: AB1, arachidonic acid 5 and 10 μM, p <0.05. How it is done: as §4
In the next test the test system is VGE62. Briefly: MTT cell metabolic activity assay, VGE62. The class given is cell-based, human. Conditions: VGE62, arachidonic acid 5 and 10 μM, p <0.05. The procedure: as §4
The next test concerns AE17. Nature of the test: MTT cell metabolic activity assay, AE17. The class given is cell-based, mouse. Conditions: AE17, arachidonic acid 5 and 10 μM, p <0.05. How it is done:
as §4

In the case of `O=C(Nc1ccccc1)c1cc([N+](=O)[O-])ccc1Cl` [GW9662], the EC50 – broadly, the concentration that produces a half-maximal response – on PPARα [1] (PPARα partial agonism, read-out: Functionality, Lit. EC50) was 26 ± 9 nM. For the same molecule, the IC50 – broadly, the point on the concentration scale where inhibition reaches its midpoint – is 188 ± 43 nM on PPARα [1] (PPARα, inhibition of agonism by 30 nM GW7647, read-out: Functionality, Lit. IC50); 3.8 ± 1.3 nM at PPARγ [2]; 4 ± 2.6 nM at PPARγ [3] (inhibition of agonism by 30 nM rosiglitazone, 16 h incubation, mean of 3 experiments ± SEM); 39 ± 4 nM at PPARα [4]; 12.4 ± 3.6 nM at PPARγ [5]; 131 ± 31 nM on PPARα [6] (inhibition of agonism by 10 nM GW7647, 16 h incubation, mean of 3 experiments ± SEM). In addition, the IC50 on PPARγ [7] was 5.4 ± 0.6 nM; at PPARα [8], 214 ± 64.6 nM. On PPARα [1] (PPARα), the “Maximal activity reached (partial agonism)” value was “j 33% of maximal activity ([Seimandi et al., 2005])”. In addition, the “Functionality, Type” value at PPARγ [3] is “antagonist”; at PPARα [6], “partial agonist”.
For `O=C(Nc1ccncc1)c1cc([N+](=O)[O-])ccc1Cl` [T0070907], in [9], the Tumor growth entry is “did not find an inhibitory effect on tumor growth”. The Brain metastases entry in test [10] was “significant decrease of brain metastases from melanoma and breast cancer”.
`CCCCC/C=C\C/C=C\C/C=C\C/C=C\CCCC(=O)O` [arachidonic acid]: the “Proliferation (MTT) in HAP1 parental versus PPARA/PPARG KO cells” value in test [11] is recorded as “significant increase in proliferation, but only in the HAP1 parental cell line”. Also, the “Proliferation (MTT)” value with AB1, in the test on VGE62 and in the test with AE17 was “increased proliferation in a concentration-dependent manner” each time.
